Marks after values point to notes of the source that are not given here.
Tested on: mouse hair loss model
Assay: Mouse hair loss (androgenic alopecia) model: hair length
Type: in vivo, C57BL/6 mice
Conditions: mouse AGA model; external 2% tincture twice a day
Text: (1) Preparation method of tincture of compounds CLY-1, CLY-2, CLY-3, CLY-4, CLY-8, CLY-11, CLY-19, CLY-36, and CLY-39: 60% ethanol was mixed with the above compounds to prepare a tincture of 2% concentration.
(2) Positive treatment drug: 2% minoxidil tincture (produced by the Institute of Dermatology, Chinese Academy of Medical Sciences)
The experimental mice were divided into the negative control group (external use of 60% ethanol), model group (external use of 60% ethanol), positive control group (external use of 2% minoxidil tincture), CLY-1 external treatment group (external use of 2% CLY-1 tincture), CLY-2 external treatment group (external use of 2% CLY-2 tincture), CLY-3 external treatment group (external use of 2% CLY-3 tincture), CLY-4 external treatment group (external use of 2% CLY-4 tincture), CLY-8 external treatment group (external use of 2% CLY-8 tincture) CLY-11 external treatment group (2% CLY-11 tincture), CLY-19 external treatment group (2% CLY-19 tincture), CLY-36 external treatment group (2% CLY-36 tincture), and CLY-39 external treatment group (2% CLY-39 tincture). There were 6 animals in each group, half male and half female. An area of 4 cm×5 cm from the back of experimental mice with hair removed was selected, and the hair removal area was painted yellow with 3% picric acid solution to determine the observation area of the hair removal experiment. In addition to the negative control group, mice in other groups were injected subcutaneously with testosterone propionate injection [8 ml/(kg·d)] at the back of the neck, once a day, for 60 consecutive days, to establish the model of androgenic alopecia (AGA). At the same time of modeling, the rats in the corresponding drug group were smeared with drugs on the observation area of the back at the rate of 1 ml/(piece·time), twice a day, with an interval of 2 hours. The normal control group and the model control group were smeared with the excipient (60% ethanol solution), 1 ml/(one time), twice a day, for 60 consecutive days.
10 hairs were extracted from the observation area on the back of each mouse every 15 days after administration, and the hair length was measured with a vernier caliper. After 60 days of administration, the skin of the experimental observation area was taken for routine tissue dehydration, paraffin embedding, HE staining, and light microscopy to observe the histopathological changes of mouse skin hair follicles and sebaceous glands. Semi-quantitative analysis was performed for each group. The grading criteria are as follows: the normal structure of dermal tissue cells, subcutaneous hair follicles, and sebaceous glands is marked as […]: no hyperplasia of dermal tissue is found, the lesions of hair follicles and sebaceous glands are limited, and no inflammation is found under the skin is marked as “+”: no obvious hyperplasia of dermal tissue is found, and the follicles are obviously cystic. No obvious hyperplasia of sebaceous glands is found, and no inflammation is found under the skin is marked as “+”: the dermal tissue has segmental hyperplasia, which is not obvious, A small number of hair follicles have cystic changes, and the sebaceous glands have mild hyperplasia and hypertrophy. There is no obvious inflammation under the skin, which is marked as “++”: the dermal tissue cells of the skin have different degrees of segmental hyperplasia, and some hair follicles have cystic changes, showing uneven size of hair follicles, and no cells around. The sebaceous glands have hyperplasia, and the nuclei in the proliferative glands are few. A few subcutaneous mild inflammatory hyperplasia is marked as “+++”.

Nc1ccccc1-c1ccc(C(=O)N(c2ncccc2Cl)[C@@H]2CCCNC2)cc1 [CLY-39]
15-day hair length: 0.665* cm | 30-day hair length: 0.845* cm | 45-day hair length: 0.867* cm | 60-day hair length: 0.956* cm

O=C(c1ccc(-c2ccccc2Cl)cc1)N(c1ncccc1Cl)[C@@H]1CCCNC1 [CLY-36]
15-day hair length: 0.628* cm | 30-day hair length: 0.824* cm | 45-day hair length: 0.823* cm | 60-day hair length: 0.919* cm

O=C(c1ccc(-c2ccccc2-c2nnn[nH]2)cc1)N(c1ncccc1Cl)[C@@H]1CCCNC1 [CLY-19]
15-day hair length: 0.623* cm | 30-day hair length: 0.826* cm | 45-day hair length: 0.828* cm | 60-day hair length: 0.915* cm

NC1CCCC(N(C(=O)c2ccc(-n3nnc4cccnc43)cc2)c2ncccc2Cl)C1 (stereo not shown) [CLY-11]
15-day hair length: 0.637* cm | 30-day hair length: 0.831* cm | 45-day hair length: 0.834* cm | 60-day hair length: 0.932* cm

O=C(c1ccc(-n2nnc3cccnc32)cc1)N(c1ncccc1Cl)[C@@H]1CCNC1 [CLY-8, (R)-4-(3H-[1,2,3]triazolo[4,5-b]pyridin-3-yl)-N-(3-chloropyridin-2-yl)-N-(pyrrolidin-3-yl)benzamide]
15-day hair length: 0.682 * cm | 30-day hair length: 0.872* cm | 45-day hair length: 0.886* cm | 60-day hair length: 0.971* cm

O=C(c1ccc(-n2nnc3cccnc32)cc1)N(c1ncccc1Cl)C1CCCC(O)C1 (stereo not shown) [CLY-4]
15-day hair length: 0.641* cm | 30-day hair length: 0.837* cm | 45-day hair length: 0.841* cm | 60-day hair length: 0.939* cm

Nc1cc(N2CCCCC2)nc(N)[n+]1[O-] [Positive control group, minoxidil, reference compound]
15-day hair length: 0.591* cm | 30-day hair length: 0.814* cm | 45-day hair length: 0.825 cm | 60-day hair length: 0.842* cm

CCN1CCC[C@@H](N(C(=O)c2ccc(-n3nnc4cccnc43)cc2)c2ncccc2Cl)C1 [CLY-2, (R)-4-(3H-[1,2,3]triazolo[4,5-b]pyridin-3-yl)-N-(3-chloropyridin-2-yl)-N-(1-ethylpiperidin-3-yl)benzamide]
15-day hair length: 0.676* cm | 30-day hair length: 0.865* cm | 45-day hair length: 0.869* cm | 60-day hair length: 0.962* cm

CN1CCC[C@@H](N(C(=O)c2ccc(-n3nnc4cccnc43)cc2)c2ncccc2Cl)C1 [CLY-1, (R)-4-(3H-[1,2,3]triazolo[4,5-b]pyridin-3-yl)-N-(3-chloropyridin-2-yl)-N-(1-methylpiperidin-3-yl)benzamide]
15-day hair length: 0.653* cm | 30-day hair length: 0.851* cm | 45-day hair length: 0.858* cm | 60-day hair length: 0.951* cm

CNC1CCCC(N(C(=O)c2ccc(-n3nnc4cccnc43)cc2)c2ncccc2Cl)C1 (stereo not shown) [CLY-3]
15-day hair length: 0.646* cm | 30-day hair length: 0.843* cm | 45-day hair length: 0.847* cm | 60-day hair length: 0.946* cm

From patent US20240300945A1, “CLY SERIES COMPOUND, PREPARATION METHOD THEREFOR AND USE THEREOF IN PREPARATION OF DRUGS” (NANJING WELLBEST PHARMACEUTICAL CO., LTD, priority 2021, published 2024)
